Measured values published in US11780830B2, “Triazolone derivatives or salts thereof and pharmaceutical compositions comprising the same” (YUHAN CORPORATION, priority 2018, dated 2023).
Where a name gives a salt, the structure may show the parent alone.

What was measured:
Type in all cases: biochemical
[1] = target: T1, recombinant human MAO-B (monoamine oxidase-B) (Homo sapiens, UniProt P27338); assay: Activity on recombinant human MAO-B, method similar to the VAP-1 assay; conditions: substrate 1 mM benzylamine; read-out: Inhibitory Activity (IC50, nM) MAO-B
T1 construct: purchased Sigma-Aldrich
T1 sequence (P27338 1-520): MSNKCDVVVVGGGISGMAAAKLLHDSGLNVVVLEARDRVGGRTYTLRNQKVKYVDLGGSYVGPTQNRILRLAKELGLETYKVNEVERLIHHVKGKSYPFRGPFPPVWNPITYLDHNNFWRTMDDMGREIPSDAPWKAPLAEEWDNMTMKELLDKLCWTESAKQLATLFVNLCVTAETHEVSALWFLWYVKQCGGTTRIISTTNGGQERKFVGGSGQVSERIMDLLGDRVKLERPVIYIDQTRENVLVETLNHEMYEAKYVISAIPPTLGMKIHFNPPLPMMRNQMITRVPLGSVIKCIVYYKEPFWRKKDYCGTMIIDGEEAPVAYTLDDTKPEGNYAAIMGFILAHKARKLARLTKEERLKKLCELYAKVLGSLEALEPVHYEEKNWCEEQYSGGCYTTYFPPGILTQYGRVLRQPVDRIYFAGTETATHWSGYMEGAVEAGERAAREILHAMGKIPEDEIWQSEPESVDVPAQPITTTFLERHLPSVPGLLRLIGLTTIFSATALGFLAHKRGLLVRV
Method: (§1) The compounds according to the present technology were evaluated in terms of activity on recombinant human VAP-1 (R&D systems) by measuring the level of hydrogen peroxide in horseradish peroxidase (HRP)-coupled reaction using Amplex Red Hydrogen Peroxide Assay Kit (Molecular Probes, Invitrogen, USA). The experiment was carried out at room temperature using benzylamine as a substrate. In the HRP-coupled reaction, hydrogen peroxide oxidation of 10-acetyl-3,7-dihydroxyphenoxazine (Amplex Red reagent) produces resorufin, which is a highly fluorescent compound. Briefly, the test compound was dissolved in dimethyl sulfoxide (DMSO) at a concentration of 20 mM. The dose-response assessment was made by 1:3 serial dilution in DMSO, thereby creating an 8 point curve. The concentration of the upper part was controlled according to the efficacy of the compounds, followed by dilution with a reaction buffer solution to obtain a final DMSO concentration less than 1%. To each well of a 96 black well plate, human VAP-1 purified in 50 mM sodium phosphate buffer solution (pH7.4) was added. The test compounds dissolved in DMSO were incubated with the human VAP-1 enzymes at 37° C. for 30 minutes. After 30-minute incubation, each well is added with a reaction mixture containing 200 uM Amplex Red reagent prepared from 50 mM sodium phosphate buffer solution (pH 7.4), 1 mM benzylamine, and 1 U/mL HRP. Fluorescence intensity was measured at several time points during 1-2 hours using a microplate reader (Flexstation3, Molecular Devices) under the wavelength condition exciting at 544 nm and reading the emission at 590 nm. The inhibitory effect of the compounds was measured as a decrease (%) in the signal rate as compared to the control group without any inhibitor (only diluted DMSO). Data was fixed to a logistic model with four variables and IC50 value was calculated using GraphPad Prism program.
(§2) In addition, the compounds according to the present technology were evaluated in terms of activity on a recombinant human MAO-A (monoamine oxidase-A, Sigma-Aldrich) and a recombinant human MAO-B (monoamine oxidase-B, Sigma-Aldrich) by using as substrates, 0.5 mM tyramine and 1 mM benzylamine, respectively, with a method similar to the activity evaluation method for recombinant human VAP-1. The compounds according to the present technology were also evaluated in terms of activity on a recombinant human DAO (diamine oxidase, R&D systems) by using as a substrate 1 mM putrescine with a method similar to the activity evaluation method for recombinant human VAP-1.

[2] = target: T2, recombinant human DAO (diamine oxidase) (Homo sapiens, UniProt P19801); assay: Activity on recombinant human DAO, method similar to the VAP-1 assay; conditions: substrate 1 mM putrescine; read-out: Inhibitory Activity (IC50, nM) DAO
T2 construct: purchased R&D systems
T2 sequence (P19801 20-751): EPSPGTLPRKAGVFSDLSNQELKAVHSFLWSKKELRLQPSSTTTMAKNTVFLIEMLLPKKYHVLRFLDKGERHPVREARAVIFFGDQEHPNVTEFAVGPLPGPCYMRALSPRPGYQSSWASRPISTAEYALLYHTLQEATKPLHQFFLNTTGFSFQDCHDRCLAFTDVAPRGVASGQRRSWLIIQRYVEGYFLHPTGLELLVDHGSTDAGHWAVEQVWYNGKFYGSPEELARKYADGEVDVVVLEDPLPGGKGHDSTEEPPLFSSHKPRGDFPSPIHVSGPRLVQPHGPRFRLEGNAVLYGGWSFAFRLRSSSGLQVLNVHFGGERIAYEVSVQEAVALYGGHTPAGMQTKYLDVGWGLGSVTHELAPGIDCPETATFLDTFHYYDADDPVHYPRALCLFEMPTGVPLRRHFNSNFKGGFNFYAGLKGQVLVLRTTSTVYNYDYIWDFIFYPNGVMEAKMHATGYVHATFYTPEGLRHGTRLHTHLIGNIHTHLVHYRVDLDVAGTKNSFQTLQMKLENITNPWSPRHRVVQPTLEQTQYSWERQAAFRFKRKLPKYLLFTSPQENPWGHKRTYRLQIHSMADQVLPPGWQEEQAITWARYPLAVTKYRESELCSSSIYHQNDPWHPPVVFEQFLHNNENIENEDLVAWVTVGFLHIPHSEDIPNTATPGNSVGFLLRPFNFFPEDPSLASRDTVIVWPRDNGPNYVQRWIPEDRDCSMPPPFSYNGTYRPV
Method: as §1, §2

[3] = target: T3, recombinant human VAP-1 (Homo sapiens, UniProt Q16853); assay: Activity on recombinant human VAP-1, HRP-coupled Amplex Red hydrogen peroxide assay; conditions: substrate 1 mM benzylamine; compound incubated with enzyme at 37° C. for 30 minutes; pH 7.4; read-out: Inhibitory Activity (IC50, nM) human VAP-1
T3 construct: purchased R&D systems
T3 sequence (Q16853 1-763): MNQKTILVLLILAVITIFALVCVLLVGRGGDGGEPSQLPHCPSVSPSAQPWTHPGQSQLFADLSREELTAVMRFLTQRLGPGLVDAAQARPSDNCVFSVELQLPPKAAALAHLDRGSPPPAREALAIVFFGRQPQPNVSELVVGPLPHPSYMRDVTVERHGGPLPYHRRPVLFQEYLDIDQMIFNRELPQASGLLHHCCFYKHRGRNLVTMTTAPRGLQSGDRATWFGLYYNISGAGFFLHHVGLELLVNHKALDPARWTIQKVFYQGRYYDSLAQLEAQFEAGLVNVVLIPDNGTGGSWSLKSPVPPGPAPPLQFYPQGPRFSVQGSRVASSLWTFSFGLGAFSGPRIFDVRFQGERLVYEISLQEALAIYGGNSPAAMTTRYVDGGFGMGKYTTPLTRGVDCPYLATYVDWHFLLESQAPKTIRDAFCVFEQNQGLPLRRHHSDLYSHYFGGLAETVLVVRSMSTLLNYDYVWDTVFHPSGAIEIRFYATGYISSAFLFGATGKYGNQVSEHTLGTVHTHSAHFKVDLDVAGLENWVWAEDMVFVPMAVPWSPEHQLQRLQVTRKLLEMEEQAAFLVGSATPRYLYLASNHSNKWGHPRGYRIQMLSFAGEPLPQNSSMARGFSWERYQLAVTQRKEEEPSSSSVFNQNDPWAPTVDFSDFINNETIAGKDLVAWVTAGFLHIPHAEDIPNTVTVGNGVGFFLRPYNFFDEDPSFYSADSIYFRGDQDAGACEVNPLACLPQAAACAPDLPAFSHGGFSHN
Method: as §1

[4] = target: T4, recombinant human MAO-A (monoamine oxidase-A) (Homo sapiens, UniProt P21397); assay: Activity on recombinant human MAO-A, method similar to the VAP-1 assay; conditions: substrate 0.5 mM tyramine; read-out: Inhibitory Activity (IC50, nM) MAO-A
T4 construct: purchased Sigma-Aldrich
T4 sequence (P21397 1-527): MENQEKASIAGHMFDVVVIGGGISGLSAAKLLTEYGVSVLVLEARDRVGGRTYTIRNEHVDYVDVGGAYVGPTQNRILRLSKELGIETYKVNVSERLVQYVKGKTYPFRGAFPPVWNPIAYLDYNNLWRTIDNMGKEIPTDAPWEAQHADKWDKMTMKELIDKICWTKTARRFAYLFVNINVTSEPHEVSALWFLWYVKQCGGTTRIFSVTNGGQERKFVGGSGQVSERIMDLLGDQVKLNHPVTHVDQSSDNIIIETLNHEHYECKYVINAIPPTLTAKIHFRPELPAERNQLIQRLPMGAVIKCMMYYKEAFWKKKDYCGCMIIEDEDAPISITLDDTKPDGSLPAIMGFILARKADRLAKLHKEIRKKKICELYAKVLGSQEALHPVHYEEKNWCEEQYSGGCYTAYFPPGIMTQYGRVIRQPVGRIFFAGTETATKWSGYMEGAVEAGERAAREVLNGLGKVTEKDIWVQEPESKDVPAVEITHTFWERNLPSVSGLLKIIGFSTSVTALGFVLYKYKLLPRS
Method: as §1, §2

SMILES | IC50 [1] [nM] | IC50 [2] [nM] | IC50 [3] [nM] | IC50 [4] [nM]
CN(C)S(=O)(=O)c1ccc(-c2ccc(Cn3cnn(C/C(=C/F)CN)c3=O)s2)cc1 [Example 9, 4-[5-(1-[(2E)-2-(aminomethyl)-3-fluoroprop-2-en-1-yl]-5-oxo-1,5-dihydro-4H-1,2,4-triazol-4-ylmethyl)thiophen-2-yl]-N,N-dimethylbenzenesulfonamide hydrochloride] | 1600 | 170 | 1.5 | > 100000
COC(=O)c1ccc(-c2ccc(Cn3cnn(C/C(=C/F)CN)c3=O)s2)cc1 [Example 10, methyl 4-[5-(1-[(2E)-2-(aminomethyl)-3-fluoroprop-2-en-1-yl]-5-oxo-1,5-dihydro-4H-1,2,4-triazol-4-ylmethyl)thiophen-2-yl]benzoate hydrochloride] | 77 | 500 | 1.5 | > 100000
COC(=O)c1cccc(-c2ccc(Cn3cnn(C/C(=C/F)CN)c3=O)s2)c1 [Example 11, methyl 3-[5-(1-[(2E)-2-(aminomethyl)-3-fluoroprop-2-en-1-yl]-5-oxo-1,5-dihydro-4H-1,2,4-triazol-4-ylmethyl)thiophen-2-yl]benzoate hydrochloride] | 35 | 1100 | 1.8 | > 100000
COC(=O)c1ccc(-c2ccc(Cn3cnn(C/C(=C/F)CN)c3=O)s2)cc1F [Example 12, methyl 4-[5-(1-[(2E)-2-(aminomethyl)-3-fluoroprop-2-en-1-yl]-5-oxo-1,5-dihydro-4H-1,2,4-triazol-4-ylmethyl)thiophen-2-yl]-2-fluorobenzoate hydrochloride] | 110 | 200 | 1.8 | > 100000

Other lines, results leading:

IC50 [1] [nM] | IC50 [2] [nM] | IC50 [3] [nM] | IC50 [4] [nM] | SMILES
260 | 320 | 0.8 | > 100000 | COC(=O)c1cc(F)cc(-c2ccc(Cn3cnn(C/C(=C/F)CN)c3=O)s2)c1 [Example 13, methyl 3-[5-(1-[(2E)-2-(aminomethyl)-3-fluoroprop-2-en-1-yl]-5-oxo-1,5-dihydro-4H-1,2,4-triazol-4-ylmethyl)thiophen-2-yl]-5-fluorobenzoate hydrochloride]
< 100 | 2400 | 6.5 | > 100000 | NC/C(=C\F)Cn1ncn(Cc2ccc(-c3ccc(F)c(F)c3)s2)c1=O [Example 14, 2-[(2E)-2-(aminomethyl)-3-fluoroprop-2-en-1-yl]-4-[5-(3,4-difluorophenyl)thiophen-2-yl]methyl-2,4-dihydro-3H-1,2,4-triazol-3-one hydrochloride]
5 | 670 | 0.9 | > 100000 | NC/C(=C\F)Cn1ncn(Cc2ccc(-c3ccc(F)c(C(F)(F)F)c3)s2)c1=O [Example 15, 2-[(2E)-2-(aminomethyl)-3-fluoroprop-2-en-1-yl]-4-(5-[4-fluoro-3-(trifluoromethyl)phenyl]thiophen-2-ylmethyl)-2,4-dihydro-3H-1,2,4-triazol-3-one hydrochloride]
300 | 2800 | 1.2 | > 100000 | COc1ccc(-c2ccc(Cn3cnn(C/C(=C/F)CN)c3=O)s2)cc1OC [Example 16, 2-[(2E)-2-(aminomethyl)-3-fluoroprop-2-en-1-yl]-4-[5-(3,4-dimethoxyphenyl)thiophen-2-yl]methyl-2,4-dihydro-3H-1,2,4-triazol-3-one hydrochloride]
1000 | 620 | 1.2 | > 100000 | COc1cc(-c2ccc(Cn3cnn(C/C(=C/F)CN)c3=O)s2)cc(OC)c1OC [Example 17, 2-[(2E)-2-(aminomethyl)-3-fluoroprop-2-en-1-yl]-4-[5-(3,4,5-trimethoxyphenyl)thiophen-2-yl]methyl-2,4-dihydro-3H-1,2,4-triazol-3-one hydrochloride]
